The values that follow come from patent publication US11696914B1 (priority 2019, dated 2023).

The test system of data set [1] is Ebola virus/H.sapiens-tc/COD/1995/Kikwit-9510621 (EBOV/Kik). Description: microbe, parasite or virus in culture. The class given is cell-based. Particulars: Zaire ebolavirus, HeLa.
Data set [2] has as its system Respiratory synactial virus. Kind of data set: organism not typed. The class given is cell-based. Particulars: MA104.
In data set [3] the test system is Hepatitis B virus. Description: microbe, parasite or virus in culture. The class given is cell-based. Particulars: HepG2 2.2.15.
The conditions of data set [4]: mouse, microsomes; cited from earlier work.
Data set [5] concerns Zika virus. Description: microbe, parasite or virus in culture. The class given is cell-based. The conditions noted are these: Vero 76.
In data set [6] the test system is murine hepatitis virus (MHV). Description: microbe, parasite or virus in culture. The conditions noted are these: Murine coronavirus, read-out: IC50 versus murine hepatitis virus (MHV). The class given is cell-based.
Data set [7] can be described thus: in vitro. Particulars: African green monkey.
Data set [8] relates to Ebola virus/H.sapiens-tc/COD/1976/Yambuku-Mayinga (EBOV/May). Description: microbe, parasite or virus in culture. The class given is cell-based. The conditions noted are these: Zaire ebolavirus, HeLa.
Data set [9] relates to Dengue Virus 2. Kind of data set: microbe, parasite or virus in culture. The class given is cell-based. Particulars: Vero 76.

Read-outs that look alike come from different tables or passages of the source.

Take `COc1ccc2nc3cc(Cl)ccc3c(Nc3cc(CN4CCCC4)c(O)c(CN4CCCC4)c3)c2n1` [Pyronaridine, 4-[(7-Chloro-2-methoxybenzo[b][1,5]naph-thyridin-10-yl)amino]-2,6-bis(1-pyrrolidinylmethyl)phenol phosphate (1:4)]: the IC50 (commonly the point on the concentration scale where inhibition reaches its midpoint) was 1.3 ± 0.42 µM in [1], 0.82 to 1.3 µM in data set [1] (read-out: IC50 range against three strains of EBOV), 2.75 µM in data set [6] and 1.01 ± 0.58 µM in [8]. Moreover, the EC50 (in general, the concentration that produces a half-maximal response) was greater than 7.5 µM in [2], 4.52 µM in data set [3], 3.2 µM in data set [5] and 3.2 µM in data set [9]. The EC90 – broadly, the point of the concentration-response curve where the effect stands at 90% – in data set [3] is greater than 100 µM. Besides, the “Relative Peak Area/Abundance MLM” value in data set [4] is 100%. This molecule displayed a CC50 in [7] of 7.5 µM.
